As usually defined, the IC50 is the concentration that inhibits the measured activity by half. A word on the melting point: it is the temperature of the solid-liquid transition.

For data set [1], the system named is gastric adenocarcinoma SGC-7901 cells. The data set can be described thus: MTT antiproliferative assay, SGC-7901. The settings on record: read-out: IC50 SGC-7901. The format is cell-based, human. The method, then:
(§1) The SGC-7901, A549 and HT-1080 cell lines were purchased from the American Type Culture Collection (ATCC, Manassas, VA, USA). […] Briefly, approximately 3 × 10^4 cells were seeded in a 96-well plate. After 24 h of incubation at 37 °C, cells were exposed to compounds of differing concentrations for 24 h. After treatment, cells were washed with 1X PBS followed by addition of 100 µL of 0.05% MTT reagent to each well, followed by incubation for 4 h at 37 °C. After incubation, the supernatant from each well was carefully removed and the formazan crystals were dissolved in 100 µL of DMSO. The colour density was measured spectrophotometrically at 490 nm using a microplate reader (SpectraMax Plus384, Molecular Devices Corp., USA). The data were calculated and plotted as percent viability compared to control.
as §1

Data set [2] relates to lung adenocarcinoma A549 cells. The data set can be described thus: MTT antiproliferative assay, A549. The settings on record: read-out: IC50 A549. Format: cell-based, human. How it is done: as §1, §1
Data set [3] deals with fibrosarcoma HT-1080 cells. Put plainly: MTT antiproliferative assay, HT-1080. The settings on record: read-out: IC50 HT-1080. Format: cell-based, human. How it is done: as §1, §1
Background: Formazan colour is commonly taken as a measure of viable cells.

Data set [4] deals with SGC-7901, A549 and HT-1080 cell lines. Put plainly: MTT antiproliferative assay, span over the three cell lines. Format: cell-based, human. The settings on record: for antiproliferative activity in words: SGC-7901, A549 and HT-1080; for IC50: read-out: IC50 range against the three human cancer cell lines. How it is done: as §1, §1
The target of data set [5] is T1, highly purified tubulin from porcine brain (Sus scrofa, UniProt P02554).
T1 construct: highly purified tubulin from porcine brain; purchased Cytoskeleton BK011P; host or cells: porcine brain (tissue-purified)
Put plainly: Tubulin polymerization assay. Format: biochemical. The settings on record: CA-4 0.5-4 µM, 6i 0.1-8.0 µM, paclitaxel 5.0 µM, 37 °C. The method, then: This assay uses highly purified tubulin from porcine brain.
The reaction was monitored at 37 °C.
(§2) Tubulin polymerization assay[33] was conducted with reagents as described in the kit manufacturer (Cytoskeleton, Cat.#BK011P) in a 96-well plate. In brief, tubulin was re-suspended in ice-cold G-PEM buffer (80 mM PIPES, 2 mM MgCl2, 0.5 mM EGTA, 1 mM GTP, 20% (v/v) glycerol) and added to wells on a 96-well plate containing the designated concentration of drugs or vehicle. Samples were mixed well, and tubulin assembly was monitored (emission wavelength: 450 ± 20 nm; excitation wavelength: 360 ± 20 nm) at 1 min intervals for 90 min at 37 °C in a SpectraMax 340PC spectrophotometer (Biotek Synergy HT, Winooskin, VT, USA). IC50 values were calculated from data at the 20 min time point using GraphPad Prism software. Experiments were repeated three times.
as §2, with “assay” for “assay[33]”, “450±20” for “450 ± 20”, “360±20” for “360 ± 20”, “timepoint” for “time point”

Another data set relates to HCT116. The arrangement: method as in Org. Biomol. Chem. 2005, 3, 2657-2660. The settings on record: ref Org. Biomol. Chem. 2005, 3, 2657-2660; cited from earlier work.
Where [6] appears, read: MTT assay, 24 h exposure, triplicate.
The mark [7] stands for this setting: range over SGC-7901, A549 and HT-1080, MTT assay.
The mark [8] stands for this setting: Homo sapiens, SGC-7901, MTT assay, 24 h exposure, triplicate.
Setting [9] is: Homo sapiens, A549, MTT assay, 24 h exposure, triplicate.
Setting [10] is: Homo sapiens, HT-1080, MTT assay, 24 h exposure, triplicate.

Molecules are shown by their SMILES. “Also recorded” adds a separate entry of the source. Read-outs that look alike come from different tables or passages of the source.

T1 sequence (P02554 whole entry): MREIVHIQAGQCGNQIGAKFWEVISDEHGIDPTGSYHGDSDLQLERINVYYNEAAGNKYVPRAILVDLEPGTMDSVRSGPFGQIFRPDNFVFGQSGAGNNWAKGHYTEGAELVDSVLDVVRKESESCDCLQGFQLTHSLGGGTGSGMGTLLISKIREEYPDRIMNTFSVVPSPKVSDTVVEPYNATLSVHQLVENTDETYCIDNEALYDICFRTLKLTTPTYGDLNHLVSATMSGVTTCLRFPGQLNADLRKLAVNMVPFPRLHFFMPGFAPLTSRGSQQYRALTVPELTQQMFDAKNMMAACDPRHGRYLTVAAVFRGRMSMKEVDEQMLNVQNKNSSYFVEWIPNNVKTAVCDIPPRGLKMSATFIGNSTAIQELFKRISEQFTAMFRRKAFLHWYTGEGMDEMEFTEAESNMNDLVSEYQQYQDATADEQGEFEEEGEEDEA
T1 sequence (P02550 whole entry partner): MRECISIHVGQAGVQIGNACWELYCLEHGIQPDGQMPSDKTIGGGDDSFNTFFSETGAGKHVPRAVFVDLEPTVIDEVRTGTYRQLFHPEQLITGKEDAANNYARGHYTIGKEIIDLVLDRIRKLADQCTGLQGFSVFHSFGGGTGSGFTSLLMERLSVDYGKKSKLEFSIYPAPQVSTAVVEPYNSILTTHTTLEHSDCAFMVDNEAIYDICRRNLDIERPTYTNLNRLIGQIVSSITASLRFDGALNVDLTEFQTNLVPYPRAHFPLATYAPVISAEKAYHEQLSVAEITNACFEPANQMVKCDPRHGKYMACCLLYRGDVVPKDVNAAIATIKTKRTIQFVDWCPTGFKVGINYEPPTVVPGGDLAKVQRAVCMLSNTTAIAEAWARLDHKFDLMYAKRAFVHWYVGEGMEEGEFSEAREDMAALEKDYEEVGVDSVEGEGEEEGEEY

Turning to `COc1ccc(-c2nnc3n2N=C(c2ccc(C)cc2)CS3)c(OC)c1OC` [Compound 4d, 3-(2,3,4-Trimethoxyphenyl)-6-(4-methyphenyl)-7H-[1,2,4]triazolo[3,4-b][1,3,4]thiadiazine], the IC50 is 66 nM in data set [1] (setting [6]), 73 nM in data set [2] (setting [6]), 28 nM in data set [3] (setting [6]) and 28 to 73 nM in data set [4] (setting [7]). In addition, the “antiproliferative activity in words” value in data set [4] (MTT assay) is given as “IC50 values at the nanomolar level”.

`COc1ccc(C2=Nn3c(nnc3-c3ccc(OC)c(OC)c3OC)SC2)cc1N` [Compound 4j, 3-(2,3,4-Trimethoxyphenyl)-6-(3-amino-4-methoxyphenyl)-7H-[1,2,4]triazolo[3,4-b][1,3,4]thiadiazine] returned a melting point of 93 to 94 °C. The IC50 in data set [1] (Homo sapiens, SGC-7901, 24 h) worked out at 1570 nM. The IC50 in data set [2] (Homo sapiens, A549, 24 h) stood at 1580 nM. For the same molecule, the IC50 in data set [3] (Homo sapiens, HT-1080, 24 h) amounted to 890 nM. Moreover, in data set [4] (MTT assay), the “antiproliferative activity in words” value was “only moderate activity”.

For the molecule `COc1ccc(C2=Nn3c(nnc3-c3ccc(OC)c(OC)c3OC)SC2)cc1O` [Compound 4l, 3-(2,3,4-Trimethoxyphenyl)-6-(3-hydroxy-4-methoxyphenyl)-7H-[1,2,4]triazolo[3,4-b][1,3,4]thiadiazine], the melting point lay within 88 to 89 °C. In data set [1] (setting [8]), the 50% inhibitory concentration (IC50) was 16300 nM. Also, the IC50 in data set [2] (setting [9]) was 7730 nM. The IC50 in data set [3] (setting [10]) is 630 nM. In addition, in data set [4] (MTT assay), the “antiproliferative activity in words” value is recorded as “only moderate activity”.

As to `COc1cc(-c2nnc3n2N=C(c2ccc(C)cc2)CS3)cc(OC)c1OC` [Compound 5b, 3-(3,4,5-Trimethoxyphenyl)-6-(4-methyphenyl)-7H-[1,2,4]triazolo[3,4-b][1,3,4]thiadiazine], the IC50 in data set [1] (setting [6]) is 27 nM; in data set [2] (setting [6]), 19 nM; in data set [3] (setting [6]), 16 nM; in data set [4] (setting [7]) it was 16 to 27 nM. Moreover, the “antiproliferative activity in words” value in data set [4] (MTT assay) is listed as “IC50 values at the nanomolar level”.

Consider `COc1ccc(C2=Nn3c(nnc3-c3cc(OC)c(OC)c(OC)c3)SC2)cc1O` [Compound 5i, 3-(3,4,5-Trimethoxyphenyl)-6-(3-hydroxy-4-methoxyphenyl)-7H-[1,2,4]triazolo[3,4-b][1,3,4]thiadiazine], for which the melting point was 95 to 97 °C. In addition, the IC50 in data set [1] (Homo sapiens, SGC-7901, 24 h) amounted to 26 nM. The IC50 in data set [2] (Homo sapiens, A549, 24 h) was determined as 71 nM. Besides, in data set [3] (Homo sapiens, HT-1080, 24 h), the IC50 was determined as 47 nM. In data set [4] (Homo sapiens), the IC50 lay within 26 to 71 nM. Besides, the “antiproliferative activity in words” value in data set [4] (MTT assay) was “IC50 values at the nanomolar level”.

`COc1ccc(C2=Nn3c(nnc3-c3ccc4c(c3)OCO4)SC2)cc1N` [Compound 6c, 3-(3,4-Methylenedioxyphenyl)-6-(3-amino-4-methoxyphenyl)-7H-[1,2,4]triazolo[3,4-b][1,3,4]thiadiazine] yielded a melting point of 88 to 90 °C. Besides, in data set [1] (setting [8]), the IC50 worked out at 18 nM. Besides, in data set [2] (setting [9]), the IC50 is 26 nM. Besides, in data set [3] (setting [10]), the IC50 turned out to be 21 nM. In data set [4] (MTT assay), the “antiproliferative activity in words” value is reported as “nanomolar IC50 values against all tested cells; also recorded: IC50 values at the nanomolar level”.

Regarding `COc1ccc(C2=Nn3c(nnc3-c3ccc4c(c3)OCO4)SC2)cc1O` [Compound 6e, 3-(3,4-Methylenedioxyphenyl)-6-(3-hydroxy-4-methoxyphenyl)-7H-[1,2,4]triazolo[3,4-b][1,3,4]thiadiazine], the melting point lay in the range of 85 to 87 °C. Moreover, the IC50 in data set [1] (setting [8]) was determined as 37 nM. Further, in data set [2] (setting [9]), the IC50 was 79 nM. Besides, in data set [3] (setting [10]), the IC50 came to 35 nM. The “antiproliferative activity in words” value in data set [4] (MTT assay) was “nanomolar IC50 values against all tested cells; also recorded: IC50 values at the nanomolar level”.

Turning to `COc1ccc(C2=Nn3c(nnc3-c3ccc(OC)c(OC)c3)SC2)cc1N` [Compound 6g, 3-(3,4-Dimethoxyphenyl)-6-(3-amino-4-methoxyphenyl)-7H-[1,2,4]triazolo[3,4-b][1,3,4]thiadiazine], the melting point lay within 213 to 215 °C. The IC50 in data set [1] (setting [8]) amounted to 23 nM. In addition, in data set [2] (setting [9]), the concentration for half-maximal inhibition (IC50) turned out to be 32 nM. In addition, in data set [3] (setting [10]), the IC50 worked out at 18 nM. In data set [4] (MTT assay), the “antiproliferative activity in words” value was “IC50 values at the nanomolar level”. For the same molecule, the “antiproliferative activity in words” value in data set [4] (MTT assay, listed as 6 g) is reported as “nanomolar IC50 values against all tested cells”.

`COc1ccc(-c2nnc3n2N=C(c2ccc(OC)c([N+](=O)[O-])c2)CS3)cc1` [Compound 6j, 3-(4-Methoxyphenyl)-6-(3-nitro-4-methoxyphenyl)-7H-[1,2,4]triazolo[3,4-b][1,3,4]thiadiazine]: the melting point is 97 to 99 °C. Moreover, the half-maximal inhibitory concentration (IC50) in data set [1] (setting [8]) turned out to be 8040 nM. Besides, in data set [2] (setting [9]), the IC50 was found to be 5680 nM. Also, the IC50 in data set [3] (setting [10]) worked out at 2320 nM.

Turning to `COc1ccc(-c2nnc3n2N=C(c2ccc(OC)c(N)c2)CS3)cc1` [Compound 6k, 3-(4-Methoxyphenyl)-6-(3-amino-4-methoxyphenyl)-7H-[1,2,4]triazolo[3,4-b][1,3,4]thiadiazine], the melting point lay within 214 to 215 °C. Further, the IC50 in data set [1] (setting [8]) stood at 36 nM. For the same molecule, the concentration for half-maximal inhibition (IC50) in data set [2] (setting [9]) was 38 nM. Besides, in data set [3] (setting [10]), the half-inhibitory concentration (IC50) is 23 nM. Besides, in data set [4] (MTT assay), the “antiproliferative activity in words” value is on record as “nanomolar IC50 values against all tested cells; also recorded: IC50 values at the nanomolar level”.

As for `CC(=O)O[C@H]1C(=O)[C@@]2(C)[C@H]([C@H](OC(=O)c3ccccc3)[C@]3(O)C[C@H](OC(=O)[C@H](O)[C@@H](NC(=O)c4ccccc4)c4ccccc4)C(C)=C1C3(C)C)[C@]1(OC(C)=O)CO[C@@H]1C[C@@H]2O` [paclitaxel, reference compound], in data set [5], the “effect on tubulin polymerization in words” value is given as “could distinctly promoted this process”.

Regarding `COc1ccc(/C=C/C=C\c2cc(OC)c(OC)c(OC)c2)cc1O` [vinylogous CA-4 (Z,E), vinylogous CA-4], the IC50 in the data set on HCT116 is 163 nM.

(Values after paper PMC5607265, “Design, synthesis and structure-activity relationship of 3,6-diaryl-7H-[1,2,4]triazolo[3,4-b][1,3,4]thiadiazines as novel tubulin inhibitors” (Scientific Reports, 2017).)
